In patent US20240041813A1, “VERY-LONG-CHAIN POLYUNSATURATED FATTY ACIDS, ELOVANOID HYDROXYLATED DERIVATIVES, AND METHODS OF USE” (priority 2020, published 2024):
Entries after “also recorded” stand apart in the source; their conditions may differ.

How the values were obtained:
[1] = system: receptor-binding domain (RBD) of the SARS-CoV-2 spike; type: cell-based, human
[2] = system: ACE-2 receptor; test: ACE-2 protein abundance by Jess capillary western in human alveoli in culture; type: cell-based; conditions: effect dependent on addition of IL-1b
Text: The Simple Protein platform Jess allows running a protein mixture in a capillary system that also serves as a probing matrix for the antibodies. This platform obviates the need to transfer the size-separated proteins onto a membrane with the consequent loss of sample. The sample amount that can be run in Jess is several times smaller than that required for Western blots. Therefore, high throughput is facilitated in cell cultures. The antibodies to this protein have been validated in our laboratory.
c.1.b. Protein abundance using Jess technology. The Simple Protein platform Jess allows running a protein mixture in a capillary electrophoretic system as a probing matrix for the antibodies (we refer to western blot as “Jess WB” here). This platform obviates the need to transfer the size-separated proteins onto a membrane with a potential loss of sample. The sample size run in Jess is several times smaller than that for classical WB. (400 ng protein/capillary column vs. 10 or more μg for classical WB). The proteins we assess will include ACE2, Furin, ADAM17, DPP4, TMPRSS2, protein surfactant D, and Cathepsin L. In addition, senescence and SASP proteins will also be analyzed. […]
ACE2 Protein abundance using Jess technology. […] Soluble protein concentration was determined by BCA assay (Thermo Fisher Scientific, Cat. 23225) and 0.4 μg used/reaction. […]

[3] = system: ACE2; test: Rat cornea alkali burn: ACE2 abundance by Jess capillary-based Western Blot; type: in vivo; conditions: rat cornea after alkali burn; eye drops 20 μl/eye, 3 times/day for 14 days; day 14
Text: Sprague-Dawley rats (8-week-old male) were obtained from Charles River Laboratories (Wilmington, MA, USA) and kept at the Animal Care of the Neuroscience Center of Excellence, Louisiana State University Health (LSUH; New Orleans, LA, USA). All animals were handled in compliance with the guidelines of the ARVO Statement for the Use of Animals in Ophthalmic and Vision Research, and the experimental protocol was approved by the Institutional Animal Care and Use Committee (IACUC) at LSUH.
(§1) The rats were anesthetized by intraperitoneal injection of Ketamine (50-100 mg/kg) plus xylazine (5-10 mg/kg). A 4 mm diameter filter paper soaked in 1 N NaOH was placed on the central cornea of the right eye for 45 seconds, and then the eye was thoroughly washed with […] of saline. After injury, the rats were randomly divided into five treatment groups: vehicle; lipoxin A4 (LXA4) from Cayman Chemical (Ann Arbor, MI, USA); R,R Resolvin D6 isomer (RvD6i), R,R neuroprotection D (NPD1), and elovanoid (ELV)-N32. All lipid solutions were prepared at the final concentration of […] using PBS with the minimal contamination of ethanol by evaporating the ethanol and immediately dissolve the lipids in PBS, then vortex well for 2 min. Topical administration (20 μl) was done 3×/day for 14 days. The experiments were double-blinded with the lipid mediators coded during the whole experiments. At the end of the study, when all data was collected, the code was opened.
Briefly, samples were lysed with RIPA buffer containing a protease inhibitor cocktail (Sigma, Cat. P8340). Cell debris was removed after 10 min centrifugation at 16,000×g. Protein concentration was determined by BCA assay (Thermo Fisher Scientific, Cat. 23225) and 1 μg used/reaction. Fluorescent Master Mix was mixed with 40 mM DTT, and the mixture was added to each sample to provide a denaturing and reducing environment. Samples were heated at 95° C./5 min, and 3 μL of each sample were loaded. The 12-230 kDa cartridge (Protein Simple—#SM-W004) was used. Primary antibodies were diluted in antibody diluent 2 buffer (Protein Simple, #042-203) while the working solution of secondary antibodies was provided by the company (Protein Simple, #042-206). Then, the filled plate was spin-down for 10 min at 1,000×g to remove bubbles and plate, and capillaries were loaded into the Jess machine. For data analysis, the area of spectra that matched the molecular weight of the target protein was used. To reduce the coefficient variant, we analyzed the GAPDH for each capillary. The ratio of the targeted protein to GAPDH was used for statistical comparisons. For visualization, the artificial lanes generated from spectra volume was used.

[4] = system: Alexa 594-RBD; type: in vivo; conditions: rat cornea after alkali burn; 14 days treatment; Alexa 594-RBD 1 μg/eye, 3 times at day 15, examined a day later
[5] = system: ACE2; test: Rat cornea alkali burn: corneal RNA-seq, Ace2 gene expression; type: in vivo; conditions: rat cornea after alkali burn; eye drops 3 times/day for 14 days; RNA-seq day 14
Procedure: as §1
(§2) Injured corneas (n=5/condition) were harvested and homogenized with TRIzol (Thermo Fisher Scientific) on ice with a glass Dounce homogenizer. RNA sequencing was performed as described^14. Briefly, after mRNA extraction and determination of purity, 8 ng of total RNA was reverse transcribed, and total cDNAs were amplified using ISPCR primer, and the library was made with the Nextera XT DNA library preparation kit (Illumina, San Diego, CA, USA). The libraries were pooled with the same molarity and sequenced using the NextSeq 500/550 High Output Kit v2 (75 cycles, Illumina). After demultiplexing, RNA-seq data were aligned to the Rattus Norvegicus reference genome (.ensembl.org/pub/release-98/fasta/rattus_norvegicus/dna/) using the Subread package v2.0.1 alignment function39. The BAM files for sequencing data alignment were counted using featureCounts function of Subread tool^40 using the macOS Catalina. The raw count data were subjected to differential gene expression analysis using DESeq2 package for R^41 with the vehicle group as reference. The adjusted p-values were named as the false discover rate (FDR).

[6] = system: injured rat cornea; test: Rat cornea alkali burn: corneal RNA-seq, cytokine storm, NFkB/inflammation, senescence, integrin and protease genes; type: in vivo; conditions: rat cornea, RNA-seq 14 days after injury
Procedure: as §1, §2

[7] = system: ACE2; test: HCEC challenged with IFNγ: Ace2 gene expression; type: cell-based, human; conditions: IFNγ 100 ng/ml
Text: (§3) All experiments with human corneal epithelial cells were approved by the Institutional Review Board of LSUHNO and conducted in accordance with NIH guidelines. HCEC were kept frozen in the laboratory at passage 2544. Cells were maintained in keratinocyte growth (KGM) medium containing the keratinocyte basal medium (KBM) (Lonza: CC-3101) supplemented with bovine pituitary extract (BPE), hEGF, Insulin, Hydrocortisone and Gentamicin Sulfate-Amphotericin (GA-1000) (Lonza, Cat. CC-4131). For all experiments, cells were seeded at 30,000 cells/cm2.
(§4) For screening the stimulation of receptor ACE2 by cytokines, the HCEC were cultured with KGM until 50-60% confluence. Then, changed to KBM containing IL-1β, -2, -6 and 8, IFN-α, -ε, and -γ or TNFα at 1, 10 or 100 ng/ml. The cells were harvested after 6 hours and analyze for the gene expression of Ace2. In other experiments, HCEC were stimulated with IFNγ, and thereafter, lipid mediators were added. For the Alexa 594-conjugated RBD binding, IFNγ was used as a cytokine trigger. At 12 hours after cytokine exposure and lipid mediator treatments, […] of labeled RBD was added to the medium. The evaluation of RBD binding was conducted 24 hours after.
Quantitative PCR was performed with the Biomark HD system (Fluidigm, San Francisco, CA, USA). […]

[8] = system: Cdkn2a (p16INK4a); test: HCEC challenged with IFNγ: Cdkn2a gene expression; type: cell-based, human; conditions: IFNγ 100 ng/ml
Text: as §3, §4
Quantitative PCR was performed with the Biomark HD system (Fluidigm, San Francisco, CA, USA). Briefly, 200 ng of RNA was reverse-transcribed using iScript Reverse Transcription Supermix (Bio-Rad), and the cDNA was pre-amplified using the PreAmp Master Mix (PN 100-5580; Fluidigm). The cDNA was then subjected to Exonuclease I treatment and diluted 5 times in TE Buffer. The qPCR reaction mixture and primer reaction mixture were made and loaded into the Biomark 96.96 IFC™ (Integrated Fluidic Circuit). The enzyme reaction was mixed using Juno™ Controller (Fluidigm) and run using the cycling program of (i) 70° C. for 40 minutes followed by 60° C. for 30 seconds, (ii) hot start for 1 minute at 95° C., (iii) 30 cycles of denaturation at 96° C. for 5 seconds, and annealing at 60° C. for 20 seconds, and (iv) melting curves between 60° C. and 95° C. with 1° C. increments/3 seconds. The Ct value of target genes was normalized to the house-keeping genes Gapdh, Hprt1, and Tfrc before normalized to the vehicle group. Relative fold changes from the ΔΔCT calculation was used to make the graph.

[9] = system: Alexa 594-RBD; test: HCEC challenged with IFNγ: Alexa 594-RBD binding (unbiased imaging, Imaris); type: cell-based, human; conditions: IFNγ 100 ng/ml and lipid mediators 200 nM for 12 h, images 24 h after RBD
Procedure: as §4
Twenty-four hours after Alexa 594-RBD was added to the HCEC, the cells were washed with PBS (3×/5 min) and fixed with 4% paraformaldehyde for 30 minutes at RT. The HCEC were washed 2× with PBS and stained with Hoechst 33342 Solution (ThermoFisher Scientific, Cat. 62249) for 30 minutes at RT. Next, the HCEC were washed 2× with PBS before imaging. For unbiased data collection, 7 designated areas were defined in each well (FIG. 63) and captured with an Olympus FV3000 confocal laser scanning microscopy under “Multi Area Time Lapse” (MATL) mode. All images were acquired with the same parameters and Z-section range, converted and inputted in the Imaris software version 9.5.1. The threshold for the control images was defined by the HCEC without Alexa 594-conjugated RBD of S protein and using it as a threshold filter for the Imaris batch image processing function. The sum of total intensity for each image was used to evaluate the binding efficiency.

[10] = system: human corneal epithelial cells (HCEC); test: HCEC challenged with IFNγ: SASP secretome (β-Gal staining); type: cell-based; conditions: HCEC 24 h after IFN-γ challenge

Structure (SMILES) | RBD protein internalization (RBD located below the membrane line) [1] | expression of the ACE-2 receptor (protein abundance, Jess) [2] | ACE2 abundance (protein, normalized to GAPDH) [3] | binding of Alexa 594-RBD to injured cornea [4] | Ace2 gene expression levels [5] | 51 injury-upregulated genes (cytokines, SASP, NFkB inflammatory) [6] | Il6 and Vegfa expression [6] | integrin gene expression (Itga5 and Itgb 1) [6] | transcriptomic profile in PCA plot relative to control cornea [6] | IFNγ-triggered Ace2 activation [7] | Cdkn2a activation [8] | IFNγ-stimulated Alexa 594-RBD binding [9] | senescence programming genes and SASP secretome activation (β-Gal) [10]
CC/C=C\CC(O)\C=C/C=C/C=C/C(O)C/C=C\C/C=C\CCCCCCCCCCCCCCC(=O)O [ELV-N34, (16Z,19Z,22R,23E,25E,27Z,29S,31Z)-22,29-dihydroxytetra-triaconta-16,19,23,25,27,31-hexaenoic acid] | decrease | downregulate | – | – | – | – | – | – | – | – | – | – | –
CC/C=C\C[C@@H](O)/C=C/C=C\C/C=C\C/C=C\C=C\[C@H](O)CCC(=O)O [RvD6i] | – | – | decrease | decrease; also recorded: counteracted | decrease | most are inhibited | reduced | significantly decreased; also recorded: decrease | nearest to the normal cornea | markedly attenuated; also recorded: suppressed | decrease | attenuated | blocked; also recorded: suppressed
